Measurements as given in patent publication US20040087561A1, “Treatment of sexual dysfunction” (priority 2000, published 2004).

Legend:
Assay type in all cases: in vivo
[1] = test system: ovariectomised female Sprague Dawley rats; experiment: Inhibition of female rat sexual proceptivity by NMB and its antagonism; settings: pre-treatment 15 mg/kg i.p. 1 h before NMB 100 ng i.c.v.; progesterone-treated rats; blockade not total
Method: Ovariectomised female rats (Sprague Dawley, obtained from Charles River, UK) were stereotaxically implanted (coordinates 0.89 mm behind Bregma, 1.3 mm lateral and 2.5 mm vertical) with stainless steel cannulae (6 mm long, O.D. 0.75 mm), held in place with dental cement. Animals were housed in groups of three and returned to a reversed lighting system of 12 h light:dark (lights off 5.00-17.00 h). Correct placement of the cannulae was assessed post-mortem. Rats were used for tests two weeks after ovariectomy (one week after cannulation). The experiments started at least 5 h into the dark period. Forty eight hours before tests, the animals were primed with 5 μg oestradiol benzoate (OB) (s.c, in corn oil) and adapted to the apparatus (in the absence of stimuli animals) for 10 min on 2 consecutive days prior testing. The 10 min test was carried out as previously described. The difference in the percentage of time spent investigating male minus female was calculated, out of the total time spent investigating stimuli.
Progesterone (Prog, 0.5 mg/0.1 ml) was dissolved in corn oil and administered subcutaneously (s.c.), 4 h before test, to induce proceptive behaviour. Compound (1) (15 mg/kg, i.p.) was dissolved in 50% 2-hydroxypropyl-β-cyclodextrin in saline and administered 1 h before the i.c.v. administration. Neuromedin B was obtained from Bachem, UK. It was dissolved in isotonic saline and administered i.c.v. over a 30 sec period, with the aid of a pump set to deliver a flow of 10 μl/min, 10 min before tests. The dosing volume was 5 μl/rat. Each rat received a total amount of 100 ng.
From the present study we can conclude that stimulation of BB1 receptors with an agonist results in inhibition of proceptive behaviour. This inhibitory effect may be prevented by the presence of an antagonist. e.g. Compound (1) In FIG. 5 the bars represent percentage of time spent investigating male, minus the percentage of time spent investigating the female stimuli+SEM, (n=8-12 per group). ***P<0.001 vs progesterone (One-way ANOVA followed by Dunnett's test).

conscious male rat = experiment: Penile intracavernosal pressure in the conscious male rat (telemetry)
Method: In addition to treating women with FSD, bombesin antagonists will be useful in treating male erectile dysfunction (MED. Both the non-selective BB1/2 antagonists (Compound 1; 10 mg/kg sc) and the selective BB I receptor antagonist (Compound 3; 15 mg/kg sc) is pro-erectile in a conscious rat model of penile erection (FIGS. 24 and 25). Erectile responses were recorded by measuring intracavemosal pressure using surgically implanted telemetric device. The specific details the surgical procedures, data acquisition and analysis can be found in detail in Bernabe 1999.
Compound 1 and compound 3 were dissolved in 50% O-cyclodextrin in saline. They were administered at a dose of 15 mg/kg subcutaneously (sc). […] These increases equate to penile erection. Both Compounds 1 and 3 induced a number of erections in a similar manner to those observed with apomorphine or melanotan-II—both of which are clinically proven agents that are effective in the treatment of MED. Moreover the amplitude of the increases observed were similar to those observed with apomorphine or melanotan-II. The mechanism of action is thought to be similar to the effects on female genital flow ie CNS potentiation of the descending neuronal pathways that control penile erection.

[2] = test system: Female New Zealand rabbits; experiment: Pelvic nerve-stimulated female genital blood flow, anaesthetised rabbit model of sexual arousal; settings: 15 mg/kg sc
Method: Female New Zealand rabbits (2.5 kg) were pre-medicated with a combination of Medetomidine (Domitor®) 0.5 ml/kg im., and Ketamine (Vetalar®) 0.25 ml/kg i.m. whilst maintaining oxygen intake via a face mask. The rabbits were tracheotomised using a Portex™ uncuffed endotracheal tube 3 ID., connected to ventilator and maintained at a ventilation rate of 30-40 breaths per minute, with an approximate tidal volume of 18-20 ml, and a maximum airway pressure of 10 cm H2O. Anaesthesia was then switched to Isoflurane and ventilation continued with O2 at 2 l/min. The right marginal ear vein was cannulated using a 23G or 24G catheter, and Lactated Ringer solution perfused at 0.5 ml/min. The rabbit was maintained at 3% Isoflurane during invasive surgery, dropping to 2% for maintenance anaesthesia.
The left groin area of the rabbit was shaved and a vertical incision was made approximately 5 cm in length along the thigh. […] Systolic and diastolic pressures were measured, and the mean arterial pressure calculated using the formula (diastolic ×2+systolic)÷3. Heart rate was measured via the pulse oxymeter and Po-ne-mah data acquisition software system (Ponemah Physiology Platform, Gould Instrument Systems Inc). […] A frequency response curve was determined at the start of each experiment in order to determine the optimum frequency to use as a sub-maximal response, normally 4 Hz. […]

Structure (SMILES): COc1ccc(C2(CNC(=O)[C@](C)(Cc3c[nH]c4ccccc34)NC(=O)Nc3ccc([N+](=O)[O-])cc3)CCCCC2)nc1 [Compound (1), (S) 3-(1H-Indol-3-yl)-N-[1-(5-methoxy-pyridin-2-yl)-cyclohexyl-methyl]-2-methyl-2-[3-(4-nitro-phenyl)-ureido]-propionamide]
- antagonism of the inhibitory effect of NMB on proceptivity [1]: prevented the inhibitory effect of NMB
- penile erection (erectile response) (conscious male rat; Compound 1 10 mg/kg sc, Compound 3 15 mg/kg sc, conscious rat model): pro-erectile
- intracavernosal pressure (conscious male rat; one hour after 10 mg/kg sc Compound 1, 45 minutes after 15 mg/kg sc compound 3, conscious rat): significant increases in intracavernosal pressure
- pelvic-nerve stimulated (PNS) increases in genital (vaginal and clitoral) blood flow [2]: potent enhancer
